This passage reports IC50 results from patent US9035059B2, “Nitrogen-containing condensed heterocyclic compound” (TAISHO PHARMACEUTICAL CO., LTD., priority 2011, dated 2015).

human MGAT2, sequence (Q3SYC2 whole entry): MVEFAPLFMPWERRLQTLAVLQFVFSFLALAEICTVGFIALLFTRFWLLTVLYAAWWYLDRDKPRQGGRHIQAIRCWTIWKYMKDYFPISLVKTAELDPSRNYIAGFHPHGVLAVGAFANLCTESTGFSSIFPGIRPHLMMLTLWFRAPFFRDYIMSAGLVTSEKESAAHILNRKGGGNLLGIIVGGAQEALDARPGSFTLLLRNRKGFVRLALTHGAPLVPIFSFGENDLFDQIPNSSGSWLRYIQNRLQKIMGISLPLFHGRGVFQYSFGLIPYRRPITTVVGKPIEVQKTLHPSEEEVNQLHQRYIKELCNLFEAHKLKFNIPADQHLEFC
MGAT2 (microsomal fraction of human small intestine), sequence (Q3SYC2 whole entry): as above

For the first experiment, the target named is human MGAT2 (Homo sapiens (Human), UniProt Q3SYC2). In words: Test Example 1: Test of MGAT2 inhibitory action (human MGAT2 enzyme fraction from Sf9 cells, free CoA detected by CPM fluorescence). Particulars: human MGAT2 enzyme fraction expressed in Sf9 insect cells, 0.5 μg/ml, 2-monooleoyl glycerol 0.78 μM, oleoyl-CoA 5.3 μM, room temperature 20 min, listed as 10-10, read-out: Activity Value [nM] (IC50, concentration at which 50% of produced free CoA was inhibited). In kind it is biochemical. Here is the method:
The MGAT2 inhibitory action of the inventive compound was measured by the methods described in Test Examples as shown below. The MGAT enzyme activity was measured based on the amount of an indicator, free Coenzyme A (CoA) which is generated by the reaction shown below, using a sulfhydryl reactive pigment (7-diethylamino-3-(4-maleimidophenyl)-4-methylcoumarin; hereinafter, sometimes abbreviated as CPM).
A test for MGAT2 inhibitory action of test compounds was conducted in accordance with a partially modified version of the method described in John F. Lockwood et al., Am. J. Physiol. Endocrinol. Metab., 2003, 285, E927.
Bac-to-Bac Baculovirus Expression System (Life Technologies Japan) was used to express human MGAT2 in insect cells (Sf9) (Life Technologies Japan). These cells were sonicated and centrifuged at 100,000 g×1 hr to give a precipitate. The precipitate was used as a human MGAT2 enzyme fraction in this assay.
This test was conducted using a black flat-bottom 96-well plate (Corning). A buffer solution with final concentrations of 5 mM magnesium chloride, 100 mM sucrose and 100 mM Tris-HCl (pH=7.5) was prepared and test compounds prepared in various concentrations using dimethyl sulfoxide were added thereto to give a final dimethyl sulfoxide concentration of 1%. The MGAT2 enzyme fraction was added thereto to give a final concentration of 0.5 μg/ml and phosphatidylcholine, 2-monooleoyl glycerol and oleoyl-CoA were added thereto to give final concentrations of 7.5 μM, 0.78 μM and 5.3 μM, respectively, before starting a reaction. The reaction was performed at room temperature for 20 min.
After 20 min, a CPM-containing solution was added thereto to give a final concentration of 5 μM before stopping the MGAT reaction. After 1 hr, a fluorescence detector (Infinite 200 from Tecan Japan) was used to measure the CPM fluorescence value of each well (excitation 380 nm, emission 460 nm).
For `CCCCCCCCOc1ccc(NS(=O)(=O)c2ccc3c(c2)CCN(C(C)Cc2ccc(C(C)(C)C)cc2)C3)c(F)c1` (centres unmarked) [Working Example 10-10], the IC50 amounted to 97 nM.

The same experiment, now with this note: human MGAT2 enzyme fraction expressed in Sf9 insect cells, 0.5 μg/ml, 2-monooleoyl glycerol 0.78 μM, oleoyl-CoA 5.3 μM, room temperature 20 min, read-out: Activity Value [nM] (IC50, concentration at which 50% of produced free CoA was inhibited).
Consider `CC(C)(C)c1ccc(NC(=O)N2Cc3ccc(S(=O)(=O)Nc4ccc(OCCOc5ccc(F)cc5)cc4F)cc3C2)cc1` [18-19], for which the IC50 was 125 nM.

With `CC(C)(C)c1ccc(CCN2CCc3cc(S(=O)(=O)Nc4ccc(OCCCCCc5ccccc5)cc4F)ccc3C2)cc1` [17-5], the IC50 was 24 nM. The same measure, in the same setting: to `CC(c1ccc(C(C)(C)C)nc1)N1CCc2cc(S(=O)(=O)Nc3ccc(CCCC4CCCC4)cc3F)ccc2C1` (centres unmarked) [23-1, 2-[1-(6-tert-Butylpyridin-3-yl)ethyl]-N-[4-(3-cyclopentylpropyl)-2-fluorophenyl]-1,2,3,4-tetrahydroisoquinoline-6-sulfonamide] belongs 13 nM; to `CC(C)(C)c1ccc(CCN2CCc3cc(S(=O)(=O)Nc4ccc(OCCC5CCOCC5)cc4F)ccc3C2)cc1` [17-7], 79 nM. Regarding `CC(C)Oc1ccc(CN2CCc3cc(S(=O)(=O)Nc4ccc(CCCC5CCCC5)cc4F)ccc3C2)cc1` [Working Example 7-45], the IC50 amounted to 199 nM. Take `CC(C)(C)c1ccc(NC(=O)N2Cc3ccc(S(=O)(=O)Nc4ccc(OCCCC5CCCCC5)cc4F)cc3C2)cc1` [18-12]: the IC50 turned out to be 26 nM. Consider `CCCCCCOc1ccc(NS(=O)(=O)c2ccc3c(c2)CCN(Cc2cnc(C(C)(C)C)s2)C3)c(F)c1` [Working Example 7-19], for which the IC50 was 195 nM. The same measure, in the same setting: to `CC(C)(C)c1ccc(NC(=O)N2Cc3ccc(S(=O)(=O)Nc4ccc(OCCOc5cccc(C(F)(F)F)c5)cc4F)cc3C2)cc1` [18-21] belongs 59 nM; to `CC(C)(C)c1ncc(CN2CCc3cc(S(=O)(=O)Nc4ccc(CCCC5CCCC5)cc4F)ccc3C2)s1` [Working Example 6-48], 49 nM.

On to `CCCCCCCOc1ccc(NS(=O)(=O)c2ccc3c(c2)CCN(CCc2ccc(C(C)(C)C)cc2)C3)c(F)c1` [17-1, 2-[2-(4-tert-Butylphenyl)ethyl]-N-[2-fluoro-4-(heptyloxy)phenyl]-1,2,3,4-tetrahydroisoquinoline-6-sulfonamide], for which the IC50 was found to be 40 nM. On to `CC(C)(C)c1ccc(NC(=O)N2Cc3ccc(S(=O)(=O)Nc4ccc(OCCCCc5ccccc5)cc4F)cc3C2)cc1` [19-2], for which the IC50 is 30 nM.

As for `CC(C)(C)[C@H]1CC[C@H](C(=O)N2CCc3cc(S(=O)(=O)Nc4ccc(CCCC5CCCC5)cc4F)ccc3C2)CC1` [Working Example 1-6], the IC50 turned out to be 88 nM. Take `CC(C)(C)c1ccc(CCN2CCc3cc(S(=O)(=O)Nc4ccc(CCCC5CCCC5)cc4F)ccc3C2)cc1` [Working Example 6-17]: the IC50 was found to be 28 nM. Consider `CC(C)(C)c1ccc(CCN2CCc3cc(S(=O)(=O)Nc4ccc(OCCC5CCCCC5)cc4F)ccc3C2)cc1` [Working Example 5-1, 2-[2-(4-tert-Butylphenyl)ethyl]-N-[4-(2-cyclohexylethoxy)-2-fluorophenyl]-1,2,3,4-tetrahydroisoquinoline-6-sulfonamide], for which the IC50 is 76 nM.

In the next experiment the target is MGAT2 (microsomal fraction of human small intestine) (Homo sapiens (Human), UniProt Q3SYC2). The experiment is described as follows: Test Example 2: Test of MGAT2 inhibitory action (microsomal fraction of human small intestine, 3H-labeled 2-monooleoyl glycerol). Conditions: microsomal fraction of human small intestine 5 μg/ml; 4 μM oleoyl-CoA, 1.25 μM 2-monooleoyl glycerol, 0.125 μM 3H-labeled 2-monooleoyl glycerol; room temperature 30 min; read-out: Activity Value [nM] (IC50, concentration at which 50% of the products 3H-labeled dioleoyl glycerol and trioleoyl glycerol was inhibited). It counts as biochemical. The method, then:
An MGAT2 inhibition test for test compounds was conducted in accordance with a partially modified version of the method described in John F. Lockwood et al., Am. J. Physiol. Endocrinol. Metab., 2003, 285, E927.
A 10 mg/mL microsomal fraction of human small intestine (duodenum- and jejunum-derived fraction purchased from Becton Dickinson Japan) was used as an enzyme source.
The test was conducted using a flat-bottom 96-well plate (Corning).
A buffer solution with final concentrations of 5 mM magnesium chloride, 1.25 mg/ml bovine serum albumin and 100 mM Tris-HCl (pH=7.5) was prepared and the microsomal fraction of human small intestine was added thereto to give a final concentration of 5 μg/ml. […] Thereafter, final concentrations of 5 mM magnesium chloride, 1.25 mg/ml bovine serum albumin, 100 mM Tris-HCl (pH=7.5), 4 μM oleoyl-CoA, 1.25 μM 2-monooleoyl glycerol and 0.125 μM ^3H-labeled 2-monooleoyl glycerol (Muromachi Yakuhin Co., Ltd.) were added thereto to give a total volume of 100 μl. This mixture was reacted at room temperature for 30 min.
The reaction was stopped by adding an equal amount of isopropanol to the reaction mixture. The substrate contained in the reaction mixture (^3H-labeled 2-monooleoyl glycerol) and the reaction products (^3H-labeled dioleoyl glycerol and trioleoyl glycerol) were separated by adsorbing them onto an octadecylsilane resin (Wako gel 50C18) (Wako Pure Chemical Industries, Ltd.), removing the substrate by use of 80% isopropanol, and then eluting the reaction products with 100% isopropanol. The amounts of the reaction products were measured with MicroBeta (PerkinElmer Japan).
As for `CC(c1ccc(C(F)(F)F)nc1)N1CCc2cc(S(=O)(=O)Nc3ccc(CCCC4CCCC4)cc3F)ccc2C1` (single isomer, unassigned) [24-4], the IC50 was 185 nM. Still for that read-out and setting: to `CC(C)(C)n1cc(CN2CCc3cc(S(=O)(=O)Nc4ccc(CCCC5CCCC5)cc4F)ccc3C2)cn1` [Working Example 2-4] belongs 92 nM; to `CC(C)(C)c1ccc(CCN2CCc3cc(S(=O)(=O)Nc4ccc(OCCCOCC(F)(F)F)cc4F)ccc3C2)cc1` [Working Example 8-12], 158 nM. `CC(c1cnc(C(F)(F)F)nc1)N1CCc2cc(S(=O)(=O)Nc3ccc(CCCC4CCCC4)cc3F)ccc2C1` (single isomer, unassigned) [24-10]: the IC50 is 100 nM. Still for that read-out and setting: to `Cc1nn(-c2ccccc2)c(C)c1CN1CCc2cc(S(=O)(=O)Nc3ccc(CCCC4CCCC4)cc3F)ccc2C1` [Working Example 7-71] belongs 57 nM; to `CC(C)(C)c1ccc(CCN2CCc3cc(S(=O)(=O)Nc4ccc(OCCC5CCOC5)cc4F)ccc3C2)cc1` (centres unmarked) [Working Example 8-10], 148 nM; to `CC(C)(C)c1cc(CN2CCc3cc(S(=O)(=O)Nc4ccc(OCCC5CCOCC5)cc4F)ccc3C2)ccn1` [Working Example 8-7], 235 nM.

`CC(C)Cn1cc(CN2CCc3cc(S(=O)(=O)Nc4ccc(CCCC5CCCC5)cc4F)ccc3C2)cn1` [Working Example 2-6]: the IC50 was 174 nM. The same measure, in the same setting: to `CC(C)(C)c1ccc(CCN2CCc3cc(S(=O)(=O)Nc4ccc(OCCCOC5CCCC5)cc4F)ccc3C2)cc1` [Working Example 8-14] belongs 68 nM; to `CC(C)(C)c1ncc(CCN2CCc3cc(S(=O)(=O)Nc4ccc(CCCC5CCCC5)cc4F)ccc3C2)s1` [Working Example 6-88], 248 nM; to `CC(C)(C)c1ccc(C(C)(C)N2CCc3cc(S(=O)(=O)Nc4ccc(CCCC5CCCC5)cc4F)ccc3C2)cn1` [20-4], 5 nM. On to `CC(c1ccc(C(F)(F)F)nc1)N1CCc2cc(S(=O)(=O)Nc3ccc(CCCC4CCCC4)cc3F)ccc2C1` (single isomer, unassigned) [24-3], for which the IC50 came out at 42 nM.

As to `CC(C)(C)c1ccc(CC(C)(C)N2CCc3cc(S(=O)(=O)Nc4ccc(CCCC5CCCC5)cc4F)ccc3C2)cc1` [20-2], the IC50 came out at 14 nM. On the same count and under the same terms, to `Cc1c(CN2CCc3cc(S(=O)(=O)Nc4ccc(CCCC5CCCC5)cc4F)ccc3C2)cnn1-c1ccccc1` [Working Example 7-70] belongs 81 nM; to `CC(C)(C)n1cc(CCN2CCc3cc(S(=O)(=O)Nc4ccc(CCCC5CCCC5)cc4F)ccc3C2)cn1` [Working Example 7-91], 140 nM; to `CC(C)(C)c1ccc(CC2(N3CCc4cc(S(=O)(=O)Nc5ccc(CCCC6CCCC6)cc5F)ccc4C3)CC2)cc1` [25-1, 2-[1-(4-tert-Butylbenzyl)cyclopropyl]-N-[4-(3-cyclopentylpropyl)-2-fluorophenyl]-1,2,3,4-tetrahydroisoquinoline-6-sulfonamide], 200 nM. For the compound `CC(C)(C)c1ccc(CCN2CCc3cc(S(=O)(=O)Nc4ccc(OCC[C@H]5CCOC[C@@H]5F)cc4F)ccc3C2)cc1` [Working Example 8-15], the IC50 came out at 204 nM. On the same count and under the same terms, to `CC(C)(C)c1ccc(CC(C)(C)N2CCc3cc(S(=O)(=O)Nc4ccc(OCCC5CCOCC5)cc4F)ccc3C2)cc1` [20-3] belongs 223 nM; to `CC(C)(C)c1cnc(CCN2CCc3cc(S(=O)(=O)Nc4ccc(CCCC5CCCC5)cc4F)ccc3C2)cn1` [Working Example 9-23], 46 nM; to `O=S(=O)(Nc1ccc(OCCC2CCOCC2)cc1F)c1ccc2c(c1)CCN(Cc1cnc(C(F)(F)F)nc1)C2` [Working Example 6-83], 193 nM.

Turning to `CC(C)(C)c1cc(CCN2CCc3cc(S(=O)(=O)Nc4ccc(CCCC5CCCC5)cc4F)ccc3C2)ccn1` [Working Example 6-90], the IC50 stood at 164 nM. As to `O=S(=O)(Nc1ccc(CCCC2CCCC2)cc1F)c1ccc2c(c1)CCN(Cc1cnc(-c3ccc(Cl)cc3)s1)C2` [Working Example 7-74], the IC50 was determined as 105 nM.

Turning to `CC(C)(C)c1ccc(CCN2CCc3cc(S(=O)(=O)Nc4ccc(OCCOCC5CCCCO5)cc4F)ccc3C2)cc1` (centres unmarked) [Working Example 8-8], the IC50 amounted to 178 nM.
